In US8143398B1, “Activity of new N-acylated ciprofloxacin derivatives against faculative intracellular bacteria” (University of South Florida, priority 2010, dated 2012):

The compounds below were run on intracellular Bartonella henselae Houston-1 (assay: Assay for intracellular activity in infected HMEC-1 cells). Conditions: not given.
Type: cell-based
Description: HMEC-1 cells were maintained in MCDB131 medium supplemented with 10% FBS, 5% L-glutamine, 10 ng/mL epidermal growth factor, 1 μg/mL hydrocortisone, penicillin/streptomycin and amphotericin B. HMEC-1 cells were infected with Bartonella henselae Houston-1 at a multiplicity of infection (MOI) of 100 for 4 hour in medium without ciprofloxacin-derived compounds. After infection, the cells were washed 2× with PBS and then treated with gentamicin (200 μg/mL) for 1 hour. Infected cells were washed as before and medium containing ciprofloxacin-derived compound was added at concentrations of 0.1 μg/mL, 1.0 μg/mL and 10 μg/mL. Infected cells were then incubated for 24, 48 and 96 hour. Ciprofloxacin-derived compounds were then removed, and the infected cells were washed as before and lysed with 0.1% saponin Lysates were plated on chocolate agar. After incubation for 8 days, CFU's were counted to determine the number of viable intracellular bacteria.

| SMILES | activity against intracellular bacteria |
| --- | --- |
| CCC(=O)N1CCN(c2cc3c(cc2F)c(=O)c(C(=O)O)cn3C2CC2)CC1 [RC4-147] | significant activity against intracellular bacteria |
| CC(=O)N1CCN(c2cc3c(cc2F)c(=O)c(C(=O)O)cn3C2CC2)CC1 [RC4-125] | significant activity against intracellular bacteria |
| CC(=O)N1CCN(c2cc3c(cc2F)c(=O)c(C(=O)N2CCN(c4cc5c(cc4F)c(=O)c(C(=O)O)cn5C4CC4)CC2)cn3C2CC2)CC1 [RC5-69] | significant activity against intracellular bacteria |
| CCC(C)(C)C(=O)N1CCN(c2cc3c(cc2F)c(=O)c(C(=O)O)cn3C2CC2)CC1 [RC4-143] | significant activity against intracellular bacteria |
| CC(C)(C)C(=O)N1CCN(c2cc3c(cc2F)c(=O)c(C(=O)O)cn3C2CC2)CC1 [RC5-32] | significant activity against intracellular bacteria |
| CCCC(=O)N1CCN(c2cc3c(cc2F)c(=O)c(C(=O)O)cn3C2CC2)CC1 [RC5-29] | significant activity against intracellular bacteria |

Same assay, conditions: infected HMEC cells treated with 1.0 μg/mL for 24 hours

| SMILES | decrease in CFUs (intracellular colony forming units) |
| --- | --- |
| CCC(=O)N1CCN(c2cc3c(cc2F)c(=O)c(C(=O)O)cn3C2CC2)CC1 [RC4-147] | greater than a tenfold decrease |

Each compound was assayed on Bartonella strains (assay: Agar dilution testing (MIC)). Conditions: growth read after 1 week.
Type: cell-based
Description: Agar was prepared with the N-acyl ciprofloxacin-derived compounds at concentrations of 10 μg/mL, 1.0 μg/mL and 0.1 μg/mL. An equivalent volume of DMSO was added to a control plate. Nine strains of Bartonella were harvested from 4-day-old plates, resuspended in 1.0 mL sterile HIB and adjusted to a McFarland 2.0 turbidity standard. Using a specific template, 12.5 μL of broth suspensions of each Bartonella strain was pipetted onto each of the fluoroquinalone compound-containing chocolate agar plates and the DMSO control plate. After 1 week, the growth of each Bartonella strain was examined and recorded.

| SMILES | MIC (minimal inhibitory concentration) |
| --- | --- |
| CC(=O)N1CCN(c2cc3c(cc2F)c(=O)c(C(=O)O)cn3C2CC2)CC1 [RC4-125] | 1.0 to 10.0 µg/mL |
| CCC(C)(C)C(=O)N1CCN(c2cc3c(cc2F)c(=O)c(C(=O)O)cn3C2CC2)CC1 [RC4-143] | 0.1 to 0.5 µg/mL |
